Reference: paper PMC3402552 (Journal of Medicinal Chemistry, 2012)

Columns and labels:
5-HT2B = 5-HT2B (Homo sapiens, UniProt P41595); experiment: PDSP radioligand competition binding, 5-HT2B; details: Figure 9B
5-HT2A F6.51L mutant = details: cited from earlier work
5-HT2A W6.48A mutant = details: cited from earlier work
5-HT2A F6.52L mutant = details: F6.52L mutation; cited from earlier work
5-HT2A S3.36A/C mutant = details: S3.36A/C mutations; cited from earlier work
5-HT6 = 5-HT6 (Homo sapiens, UniProt P50406); details: 5-HTR profiling
5-HT7 = 5-HT7 (Homo sapiens, UniProt P34969); details: 5-HTR profiling
5-HT2A = 5-HT2A (Homo sapiens, UniProt P28223); experiment: PDSP radioligand competition binding, 5-HT2A; details: 5-HTR profiling
5-HT1E = 5-HT1E (Homo sapiens, UniProt P28566); experiment: PDSP radioligand competition binding, 5-HT1E; details: 5-HTR profiling
5-HT5a = 5-HT5a (Homo sapiens, UniProt P47898); details: 5-HTR profiling
5-HT1A = molecular target: T1, 5-HT1A (Homo sapiens, UniProt P08908); details: 5-HTR profiling
T1 sequence (P08908 1-422): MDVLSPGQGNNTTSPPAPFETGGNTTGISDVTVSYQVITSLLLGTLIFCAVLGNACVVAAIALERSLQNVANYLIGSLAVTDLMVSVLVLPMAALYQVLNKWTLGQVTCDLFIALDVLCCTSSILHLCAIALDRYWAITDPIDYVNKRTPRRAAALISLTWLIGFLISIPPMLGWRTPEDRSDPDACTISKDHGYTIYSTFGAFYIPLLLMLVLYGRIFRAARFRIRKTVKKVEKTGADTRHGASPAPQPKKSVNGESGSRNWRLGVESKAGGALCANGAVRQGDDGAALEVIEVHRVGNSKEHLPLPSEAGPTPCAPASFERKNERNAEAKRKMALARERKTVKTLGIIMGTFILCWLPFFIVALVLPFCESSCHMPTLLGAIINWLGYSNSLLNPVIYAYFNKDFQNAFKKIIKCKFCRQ

5-HT1B = 5-HT1B (Homo sapiens, UniProt P28222); experiment: PDSP radioligand competition binding, 5-HT1B; details: 5-HTR profiling
5-HT3 = molecular target: T2, 5-HT3 (Homo sapiens, UniProt P46098); experiment: PDSP radioligand competition binding, 5-HT3; details: 5-HTR profiling
T2 sequence (P46098 24-478): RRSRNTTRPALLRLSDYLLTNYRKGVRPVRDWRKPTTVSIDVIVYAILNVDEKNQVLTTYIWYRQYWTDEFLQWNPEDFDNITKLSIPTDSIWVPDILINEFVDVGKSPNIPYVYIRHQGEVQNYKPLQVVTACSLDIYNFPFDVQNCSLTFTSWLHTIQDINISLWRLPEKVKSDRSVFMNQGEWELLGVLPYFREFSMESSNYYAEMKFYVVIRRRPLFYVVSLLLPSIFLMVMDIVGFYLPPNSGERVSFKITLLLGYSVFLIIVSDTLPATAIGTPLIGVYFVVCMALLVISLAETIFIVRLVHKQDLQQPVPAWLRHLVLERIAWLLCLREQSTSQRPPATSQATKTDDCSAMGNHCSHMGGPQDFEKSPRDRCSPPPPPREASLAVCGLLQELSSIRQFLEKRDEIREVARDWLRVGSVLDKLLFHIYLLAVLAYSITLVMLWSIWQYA

5-HT1B, sequence (P28222 whole entry, species assumed): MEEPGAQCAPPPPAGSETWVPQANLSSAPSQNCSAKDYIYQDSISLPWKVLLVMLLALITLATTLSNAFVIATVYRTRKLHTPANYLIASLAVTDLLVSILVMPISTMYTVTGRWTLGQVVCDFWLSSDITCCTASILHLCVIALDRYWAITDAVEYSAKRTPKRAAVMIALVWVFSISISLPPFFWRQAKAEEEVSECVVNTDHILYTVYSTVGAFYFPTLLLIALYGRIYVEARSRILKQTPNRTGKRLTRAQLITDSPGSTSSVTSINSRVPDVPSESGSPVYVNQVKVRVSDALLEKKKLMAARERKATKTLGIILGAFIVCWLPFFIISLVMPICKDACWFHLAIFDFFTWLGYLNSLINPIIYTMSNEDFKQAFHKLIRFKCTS
5-HT5a, sequence (P47898 whole entry, species assumed): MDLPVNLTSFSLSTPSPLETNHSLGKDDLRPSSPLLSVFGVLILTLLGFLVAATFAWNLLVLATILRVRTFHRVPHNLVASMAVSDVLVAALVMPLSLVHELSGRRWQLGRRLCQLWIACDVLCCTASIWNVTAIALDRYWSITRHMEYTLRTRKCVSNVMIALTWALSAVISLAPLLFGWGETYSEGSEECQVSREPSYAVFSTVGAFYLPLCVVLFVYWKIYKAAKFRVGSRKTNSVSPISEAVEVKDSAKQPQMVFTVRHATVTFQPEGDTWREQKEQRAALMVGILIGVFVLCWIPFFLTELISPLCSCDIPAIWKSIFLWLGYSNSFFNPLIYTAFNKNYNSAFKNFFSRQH
5-HT2A, sequence (P28223 whole entry, species assumed): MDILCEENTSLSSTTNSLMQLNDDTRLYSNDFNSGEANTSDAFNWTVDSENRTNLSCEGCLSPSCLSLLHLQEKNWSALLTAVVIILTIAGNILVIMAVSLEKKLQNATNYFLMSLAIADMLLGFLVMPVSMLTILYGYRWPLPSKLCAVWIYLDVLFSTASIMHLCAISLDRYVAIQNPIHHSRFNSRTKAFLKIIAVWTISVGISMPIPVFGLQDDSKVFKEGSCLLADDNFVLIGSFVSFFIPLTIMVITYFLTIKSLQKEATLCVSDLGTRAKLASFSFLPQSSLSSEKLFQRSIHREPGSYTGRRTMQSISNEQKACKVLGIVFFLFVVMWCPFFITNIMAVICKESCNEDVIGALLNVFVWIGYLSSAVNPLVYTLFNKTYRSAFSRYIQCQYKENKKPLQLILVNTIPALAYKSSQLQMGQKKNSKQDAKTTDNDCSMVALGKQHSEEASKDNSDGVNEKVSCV
5-HT7, sequence (P34969 whole entry, species assumed): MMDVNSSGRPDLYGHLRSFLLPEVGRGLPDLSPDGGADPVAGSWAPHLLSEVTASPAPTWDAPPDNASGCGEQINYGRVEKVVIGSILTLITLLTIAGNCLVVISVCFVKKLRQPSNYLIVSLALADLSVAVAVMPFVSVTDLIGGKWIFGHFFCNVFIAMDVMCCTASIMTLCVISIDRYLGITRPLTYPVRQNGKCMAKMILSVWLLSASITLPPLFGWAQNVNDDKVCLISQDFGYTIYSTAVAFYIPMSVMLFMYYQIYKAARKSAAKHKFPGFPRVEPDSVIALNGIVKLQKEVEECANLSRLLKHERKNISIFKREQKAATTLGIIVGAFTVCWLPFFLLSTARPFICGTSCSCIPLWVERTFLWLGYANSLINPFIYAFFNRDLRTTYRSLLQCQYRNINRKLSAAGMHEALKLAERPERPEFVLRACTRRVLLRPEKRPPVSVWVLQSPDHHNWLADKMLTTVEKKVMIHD
5-HT1E, sequence (P28566 whole entry, species assumed): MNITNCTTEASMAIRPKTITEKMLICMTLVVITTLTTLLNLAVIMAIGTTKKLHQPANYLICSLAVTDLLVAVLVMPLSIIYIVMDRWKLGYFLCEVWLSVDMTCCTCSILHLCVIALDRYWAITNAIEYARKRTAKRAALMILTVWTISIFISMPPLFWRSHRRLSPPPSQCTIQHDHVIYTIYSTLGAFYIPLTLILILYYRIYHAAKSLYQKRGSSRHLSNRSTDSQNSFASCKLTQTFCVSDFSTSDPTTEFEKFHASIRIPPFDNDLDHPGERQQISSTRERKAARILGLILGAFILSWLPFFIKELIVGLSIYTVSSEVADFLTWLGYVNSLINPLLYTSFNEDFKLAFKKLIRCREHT
5-HT6, sequence (P50406 whole entry, species assumed): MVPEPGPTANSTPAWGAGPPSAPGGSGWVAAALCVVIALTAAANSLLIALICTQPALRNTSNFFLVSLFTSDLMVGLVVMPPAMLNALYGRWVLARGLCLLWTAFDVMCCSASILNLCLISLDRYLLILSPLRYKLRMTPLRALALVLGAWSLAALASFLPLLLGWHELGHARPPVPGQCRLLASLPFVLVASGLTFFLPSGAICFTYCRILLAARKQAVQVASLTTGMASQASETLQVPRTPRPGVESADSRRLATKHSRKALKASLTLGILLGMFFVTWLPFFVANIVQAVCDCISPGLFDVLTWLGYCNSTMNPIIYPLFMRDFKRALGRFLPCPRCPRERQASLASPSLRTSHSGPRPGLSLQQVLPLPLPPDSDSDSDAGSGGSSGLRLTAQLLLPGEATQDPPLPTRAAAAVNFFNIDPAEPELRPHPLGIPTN
5-HT2B, sequence (P41595 whole entry, species assumed): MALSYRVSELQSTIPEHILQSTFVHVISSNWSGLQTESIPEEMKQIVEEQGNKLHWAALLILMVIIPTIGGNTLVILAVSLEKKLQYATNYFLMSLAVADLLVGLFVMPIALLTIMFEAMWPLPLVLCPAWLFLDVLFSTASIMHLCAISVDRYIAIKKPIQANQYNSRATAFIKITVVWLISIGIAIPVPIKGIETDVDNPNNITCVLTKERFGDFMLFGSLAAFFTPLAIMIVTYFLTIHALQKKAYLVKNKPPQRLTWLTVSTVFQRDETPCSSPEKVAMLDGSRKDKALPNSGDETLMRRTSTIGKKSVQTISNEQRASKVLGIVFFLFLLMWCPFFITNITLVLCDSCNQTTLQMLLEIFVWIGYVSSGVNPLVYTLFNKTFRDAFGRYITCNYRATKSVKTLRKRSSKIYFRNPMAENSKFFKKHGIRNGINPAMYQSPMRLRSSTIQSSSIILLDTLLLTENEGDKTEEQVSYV

CNC(=O)c1cccc(Oc2ccc(NC(=O)Nc3ccc(Cl)c(C(F)(F)F)c3)cc2)c1 [HN01]
change of binding relative to sorafenib (in words) (5-HT2B): slight improvement of binding

O=C(c1ccc(F)cc1)C1CCN(CCn2c(=O)[nH]c3ccccc3c2=O)CC1 [ketanserin]
decrease of binding by mutation (5-HT2A F6.51L mutant): at least 800 fold
decrease of binding by mutation (5-HT2A W6.48A mutant): 7 fold
effect of mutation on binding affinity (in words) (5-HT2A F6.52L mutant): almost no effect
effect of mutation on binding affinity (in words) (5-HT2A S3.36A/C mutant): almost no effect

CNC(=O)c1cc(Oc2ccc(NC(=O)Nc3ccc(Cl)c(C(F)(F)F)c3)cc2)ccn1 [sorafenib]
binding (in words) (5-HT6): weakly binds
binding (in words) (5-HT7): weakly binds
binding (in words) (5-HT2A): weakly binds
binding (in words) (5-HT1E): doesn’t bind
binding (in words) (5-HT5a): weakly binds
binding (in words) (5-HT1A): weakly binds
binding (in words) (5-HT1B): doesn’t bind
binding (in words) (5-HT3): doesn’t bind
